Assays:
Type in all cases: in vivo
[1] = test system: goosegrass (Eleusine indica); assay: Test F pre-/postemergence: goosegrass; conditions: Preemergence
Excerpt: (§1) Seeds of plant species selected from corn (Zea mays), soybean (Glycine max), velvetleaf (Abutilon theophrasti), lambsquarters (Chenopodium album), poinsettia, wild (wild poinsettia, Euphorbia heterophylla), pigweed, palmer (palmer pigweed, Amaranthus palmeri), waterhemp (common waterhemp, Amaranthus rudis), surinam grass (Brachiaria decumbens), crabgrass, Brazil (Brazilian crabgrass, Digitaria horizontalis), panicum, fall (fall panicum Panicum dichotomiflorum), crabgrass, large (large crabgrass, Digitaria sanguinalis), foxtail, giant (giant foxtail, Setaria faberii), foxtail, green (green foxtail Setaria viridis), goosegrass (Eleusine indica), ragweed (common ragweed, Ambrosia elatior), barnyardgrass (Echinochloa crus-galli), sandbur (southern sandbur, Cenchrus echinatus), arrowleaf sida (Sida rhombifolia), ryegrass, Italian (Italian ryegrass, Lolium multiflorum), dayflower, VA (Virginia (VA) dayflower, Commelina virginica), field bindweed (Convolvulus arvensis), cocklebur (common cocklebur, Xanthium strumarium), morningglory (Ipomoea coccinea), nightshade (eastern black nightshade, Solanum ptycanthum), kochia (Kochia scoparia), nutsedge, yellow (yellow nutsedge, Cyperus esculentus), johnsongrass (Sorghum halepense), smartweed (ladysthumb smartweed, Polygonum persicaria), and beggarticks (hairy beggarticks, Bidens pilosa), were planted into a silt loam soil and treated preemergence with test chemicals formulated in a non-phytotoxic solvent mixture which included a surfactant. At the same time, plants selected from these crop and weed species and also pigweed (Amaranthus retroflexus), waterhemp_RES1 (ALS/Triazine resistant common waterhemp, Amaranthus rudis) and waterhemp_RES2 (ALS/HPPD resistant common waterhemp, Amaranthus rudis) were planted in pots containing a planting medium comprising spaghnum peat moss, vermiculite, wetting agent and starter nutrients treated with postemergence applications of some of the test chemicals formulated in the same manner. Plants ranged in height from 2 to 18 cm for postemergence treatments (1- to 4-leaf stage).
(§2) Treated plants and controls were maintained in a greenhouse for 14 to 21 days, after which time all species were compared to controls and visually evaluated. Plant response ratings, summarized in Table E, are based on a scale of 0 to 100 where 0 is no effect and 100 is complete control. A dash (-) response means no test result.

[2] = test system: velvetleaf (Abutilon theophrasti); assay: Test F pre-/postemergence: velvetleaf; conditions: Preemergence
Excerpt: as §1, §2

[3] = test system: dayflower, VA (Virginia (VA) dayflower, Commelina virginica); assay: Test F pre-/postemergence: dayflower, VA
Excerpt: as §1, §2

[4] = test system: field bindweed (Convolvulus arvensis); assay: Test F pre-/postemergence: field bindweed
Excerpt: as §1, §2

[5] = test system: cocklebur (common cocklebur, Xanthium strumarium); assay: Test F pre-/postemergence: cocklebur; conditions: Preemergence, scale 0 to 100
Excerpt: as §1, §2

[6] = test system: ragweed (common ragweed, Ambrosia elatior); assay: Test F pre-/postemergence: ragweed; conditions: Preemergence
Excerpt: as §1, §2

[7] = test system: foxtail, green (green foxtail Setaria viridis); assay: Test F pre-/postemergence: foxtail, green; conditions: Preemergence
Excerpt: as §1, §2

[8] = test system: pigweed, palmer (palmer pigweed, Amaranthus palmeri); assay: Test F pre-/postemergence: pigweed, palmer
Excerpt: as §1, §2

[9] = 16 g ai/ha, scale 0 to 100, 0 no effect, 100 complete control
[10] = 31 g ai/ha, scale 0 to 100, 0 no effect, 100 complete control
[11] = Preemergence, 16 g ai/ha, scale 0 to 100, 0 no effect, 100 complete control
[12] = Preemergence, 31 g ai/ha, scale 0 to 100, 0 no effect, 100 complete control
[13] = Preemergence, 62 g ai/ha, scale 0 to 100
[14] = Preemergence, 125 g ai/ha, scale 0 to 100
[15] = Preemergence, 250 g ai/ha, scale 0 to 100
[16] = Postemergence, 8 g ai/ha, scale 0 to 100
[17] = Postemergence, 16 g ai/ha, scale 0 to 100
[18] = Postemergence, 31 g ai/ha, scale 0 to 100
[19] = Postemergence, 62 g ai/ha, scale 0 to 100
[20] = Postemergence, 125 g ai/ha, scale 0 to 100

Compound | Plant response rating, Goosegrass [1, 9] | Plant response rating, Goosegrass [1, 10] | Plant response rating, Goosegrass ([1]; 62 g ai/ha, scale 0 to 100) | Plant response rating, Goosegrass ([1]; 125 g ai/ha, scale 0 to 100) | Plant response rating, Goosegrass ([1]; 250 g ai/ha, scale 0 to 100) | Plant response rating, Velvetleaf [2, 9] | Plant response rating, Velvetleaf [2, 10] | Plant response rating, Velvetleaf ([2]; 125 g ai/ha, scale 0 to 100) | Plant response rating, Velvetleaf ([2]; 250 g ai/ha, scale 0 to 100) | Plant response rating, Dayflower, VA [3, 11] | Plant response rating, Dayflower, VA [3, 12] | Plant response rating, Dayflower, VA [3, 13] | Plant response rating, Dayflower, VA [3, 14] | Plant response rating, Dayflower, VA [3, 15] | Plant response rating, Field Bindweed [4, 11] | Plant response rating, Field Bindweed [4, 12] | Plant response rating, Field Bindweed [4, 13] | Plant response rating, Field Bindweed [4, 14] | Plant response rating, Field Bindweed [4, 15] | Plant response rating, Ragweed [6, 9] | also measured
COc1nn(-c2cccc(F)c2)nc1Cc1ccnc(C(F)(F)F)c1 [Compound 139] | 5 | 70 | 80 | 98 | 100 | 0 | 0 | 0 | 65 | 0 | 5 | 30 | 60 | 65 | 0 | 0 | 0 | 0 | 20 | 0 | Plant response rating, Cocklebur ([5]; 62 g ai/ha): 0; Plant response rating, Cocklebur ([5]; 125 g ai/ha): 0; Plant response rating, Ragweed [6, 10]: 0; Plant response rating, Ragweed ([6]; 125 g ai/ha, scale 0 to 100): 0; Plant response rating, Ragweed ([6]; 250 g ai/ha, scale 0 to 100): 0; Plant response rating, Foxtail, Green [7, 9]: 10; Plant response rating, Foxtail, Green [7, 10]: 35; Plant response rating, Foxtail, Green ([7]; 62 g ai/ha, scale 0 to 100): 98; Plant response rating, Foxtail, Green ([7]; 125 g ai/ha, scale 0 to 100): 100; Plant response rating, Foxtail, Green ([7]; 250 g ai/ha, scale 0 to 100): 100
Cc1nn(-c2ccnc(Cl)c2)nc1Cc1ccnc(C(F)(F)F)c1 [Compound 141] |  |  |  |  |  |  |  |  |  |  |  |  |  |  |  |  |  |  |  |  | Plant response rating, Pigweed, Palmer [8, 16]: 95; Plant response rating, Pigweed, Palmer [8, 17]: 95; Plant response rating, Pigweed, Palmer [8, 18]: 95; Plant response rating, Pigweed, Palmer [8, 19]: 100; Plant response rating, Pigweed, Palmer [8, 20]: 100; Plant response rating, Dayflower, VA [3, 16]: 10; Plant response rating, Dayflower, VA [3, 17]: 10; Plant response rating, Dayflower, VA [3, 18]: 35; Plant response rating, Dayflower, VA [3, 19]: 60; Plant response rating, Dayflower, VA [3, 20]: 75; Plant response rating, Field Bindweed [4, 16]: 50; Plant response rating, Field Bindweed [4, 17]: 60; Plant response rating, Field Bindweed [4, 18]: 70; Plant response rating, Field Bindweed [4, 19]: 80; Plant response rating, Field Bindweed [4, 20]: 85
Cc1nn(-c2ccc(F)cc2F)nc1Oc1ccnc(C(F)(F)F)c1 [Compound 146] | 0 | 40 | 70 | 75 | 98 | 0 | 0 | 0 | 25 | 0 | 0 | 10 | 35 | 35 | 0 | 0 | 0 | 0 | 25 | 0 | Plant response rating, Pigweed, Palmer [8, 11]: 85; Plant response rating, Pigweed, Palmer [8, 12]: 100; Plant response rating, Pigweed, Palmer [8, 14]: 100; Plant response rating, Pigweed, Palmer [8, 15]: 100; Plant response rating, Ragweed [6, 10]: 0; Plant response rating, Ragweed ([6]; 125 g ai/ha, scale 0 to 100): 0; Plant response rating, Ragweed ([6]; 250 g ai/ha, scale 0 to 100): 25; Plant response rating, Foxtail, Green [7, 9]: 20; Plant response rating, Foxtail, Green [7, 10]: 20; Plant response rating, Foxtail, Green ([7]; 62 g ai/ha, scale 0 to 100): 50; Plant response rating, Foxtail, Green ([7]; 125 g ai/ha, scale 0 to 100): 100; Plant response rating, Foxtail, Green ([7]; 250 g ai/ha, scale 0 to 100): 100
